We go through two compounds from patent US20050282893A1 (priority 2004, published 2005).

SMILES strings stand for the structures. Where “and” joins values, the source holds several entries; their conditions need not be identical. Identical values can stand only once. Like-named read-outs stand apart in the source and are kept apart here.

Data set [1] has as its system telomere length in FaDu cells. As to the kind of experiment: Telomere length (terminal restriction fragment) by TALA in transfected FaDu cells. It is filed as cell-based, human. From the text:
(§1) Measurement of telomere length in cultured cells. Two methods were used to measure telomere length. The first method was a solution hybridization based telomere amount and length assay (TALA) (Gan, et al., Pharm. Res., 18:1655-1659, 2001) that measures the mean length of the terminal restriction fragments (TRF). The second method was fluorescence in situ hybridization (FISH) to detect telomere signal and to estimate the approximate length of individual telomere structures at the end of chromosomes. The FISH method is as described in U.S. patent application Ser. No. 09/587,662 and Gan, et al., 2001.
(§2) Effect of hTR antisense on telomere length and telomerase activity. Telomere length (referred to as terminal restriction fragment) was measured using the TALA method. Telomerase activity was measured using the improved TRAP method.

A further data set relates to human telomerase. Kind of data set: Telomerase activity by improved TRAP in transfected FaDu cells. It is filed as cell-based. The procedure:
Inhibition of telomerase activity in cell lysates and intact cells. The modified Telomeric Repeat Amplification Protocol (TRAP) assay (Gan, et al., Pharm. Res., 18:488-493, 2001) was used to detect telomerase activity in cell lysate. The telomerase activity in intact cells was measured using intracellular TRAP, as follows. Cells (1×10^5) were washed twice with PBS and centrifuged. The cell pellet was resuspended in 100 μl of serum-free RPMI 1640 containing 5 u/ml of Streptolysin O, 2 μM of TS primer, and 50 μM of dNTP, and incubated at room temperature for 5 min. The enzyme streptolysin O was used to increase the cell membrane permeability to the TS primer. Upon entering a cell, the TS primer was elongated by the intracellular telomerase in situ. The elongated TS primer was then isolated from the cells and used as the template for PCR amplification. Then 200 μl of RPMI 1640 medium containing 10% FBS was added to the cells to stop the permeating process. […] The cells were then lyzed and the cell lysates, which contained the already extended TS primer, was directly analyzed by TRAP.
as §2

The subject of the next data set is FaDu cells. As to the kind of experiment: Cell growth of FaDu cells transfected with hTR antisense or sense. In kind it is cell-based, human. From the text:
hTR antisense inhibits telomerase. The antisense study consisted of the following steps: (a) construction of a sense and antisense to the RNA portion of the human telomerase (hTR), (b) stable transfection of cells with the hTR antisense (or hTR sense control), and (c) determination of the ability of the hTR antisense to inhibit telomerase activity and induce telomere shortening. The methodologies are detailed in the art, for example, by Mo et al., Cancer Res. 2003.
Transfection procedures. Transfection of the antisense construct used an IPTG-inducible mammalian expression system. The resulting clones were used for experiments.
Effect of hTR antisense on cell growth. Table 2 summarizes the results which show a slower growth rate for the antisense +IPTG cells (i.e., cells that were transfected by hTR antisense and treated with IPTG to induce the expression of […]) compared to cells that had either not been transfected with the antisense, not transfected but treated with IPTG, transfected with the sense and treated with IPTG, or transfected with the antisense but without the IPTG induction (i.e., control, +IPTG, +sense +IPTG, and antisense).

The subject of a further data set is FaDu tumor. Kind of data set: Telomere length by FISH in FaDu tumors implanted in mice. In kind it is in vivo. The procedure: Treatment protocol. FaDu cells (0.5˜1×10^6 cells in a volume of 100 μl) were implanted subcutaneously in male BALB/c nu/nu mice. […] The first dose was administered immediately after tumor implantation, with repeat doses given twice a week thereafter. […] Frozen tissue sections were analyzed for telomere length in individual cells using fluorescent in situ hybridization. About 10 microscope fields at 400-fold magnification were randomly chosen for each section, and the percentage of tumor cells with attenuated or lost telomere signals were counted.

The nature of data set [2]: Intravesical suramin in dogs: bladder contents, bladder wall and plasma concentrations. In kind it is in vivo. To be noted: for concentration at 120 min: beagle, dog, bladder wall tissue, other: intravesical, 6 mg/ml. As for the experimental part: Treatment protocol Five beagle dogs, weighing 9.0±0.4 kg, were used. The animals were cannulated in a cephalic vein for administration of anesthetics, and in a jugular vein for blood sampling. A urethral catheter was inserted for dose instillation and sampling of the bladder contents. […] Concentrations of the bladder contents and systemic plasma were sampled at frequent intervals for 120 minutes, at which time the bladder tissue was harvested and the animal sacrificed. Tissue sections of approximately 2 cm×2 cm surface area were cut from the bladder wall, and rapidly frozen on a flat stainless steel plate cooled on dry ice. The outer edges of the tissue samples were trimmed to avoid contamination with instillation fluid, and the frozen tissues cut into 40 μm sections parallel to the urothelial surface.

A short description of data set [3]: Suramin plasma pharmacokinetics in beagle dogs. To be noted: 6.75 mg/kg iv infusion over 30 minutes. In kind it is in vivo. From the text: Treatment protocol. […] The animals were cannulated in the cephalic veins of both front legs.
A further data set can be described thus: in vivo. To be noted: BALB/c nu/nu, mouse, plasma, intravenous, 10 mg/kg.
In a further data set the test system is FaDu tumors. As to the kind of experiment: Low-dose suramin, tumor size in mice implanted with FaDu tumors. Conditions: one of six animals; suramin 10 mg/kg ip twice-weekly for 6 weeks. It is filed as in vivo. As for the experimental part: Treatment Protocol. Immunosuppressed mice were injected subcutaneously in the thigh area with 5×10^5 FaDu cells. […] Tumor sizes were observed twice-weekly.

Data set [4] deals with telomere length in FaDu and PC3 cells. As to the kind of experiment: Telomere length in cultured cells after prolonged treatment (TALA / FISH). It is filed as cell-based, human. Conditions: prolonged treatment (7-15 weeks).
Excerpt: as §1
Treatment Protocol. Treatment with suramin or AZT was initiated after cells were allowed to attach to the growth surface in culture flasks. On the day of experiments, the culture medium was removed and replaced with inhibitor-containing medium.

In data set [5] the target is T1, telomerase (Homo sapiens, UniProt O14746). As to the kind of experiment: Modified TRAP assay, telomerase activity in cell lysate (cell extract). It is filed as biochemical. Conditions: mean ± SD, read-out: IC50, inhibition of telomerase activity. The procedure:
Inhibition of telomerase activity in cell lysates and intact cells. The modified Telomeric Repeat Amplification Protocol (TRAP) assay (Gan, et al., Pharm. Res., 18:488-493, 2001) was used to detect telomerase activity in cell lysate. The telomerase activity in intact cells was measured using intracellular TRAP, as follows. Cells (1×10^5) were washed twice with PBS and centrifuged. The cell pellet was resuspended in 100 μl of serum-free RPMI 1640 containing 5 u/ml of Streptolysin O, 2 μM of TS primer, and 50 μM of dNTP, and incubated at room temperature for 5 min. The enzyme streptolysin O was used to increase the cell membrane permeability to the TS primer. Upon entering a cell, the TS primer was elongated by the intracellular telomerase in situ. The elongated TS primer was then isolated from the cells and used as the template for PCR amplification. Then 200 μl of RPMI 1640 medium containing 10% FBS was added to the cells to stop the permeating process. The mixture was incubated at 30° C. for 30 min to allow the extension of intracellular TS primer by telomerase. The cells were then lyzed and the cell lysates, which contained the already extended TS primer, was directly analyzed by TRAP.
Treatment Protocol. Treatment with suramin or AZT was initiated after cells were allowed to attach to the growth surface in culture flasks. […]
Target sequence in this assay (O14746 whole entry): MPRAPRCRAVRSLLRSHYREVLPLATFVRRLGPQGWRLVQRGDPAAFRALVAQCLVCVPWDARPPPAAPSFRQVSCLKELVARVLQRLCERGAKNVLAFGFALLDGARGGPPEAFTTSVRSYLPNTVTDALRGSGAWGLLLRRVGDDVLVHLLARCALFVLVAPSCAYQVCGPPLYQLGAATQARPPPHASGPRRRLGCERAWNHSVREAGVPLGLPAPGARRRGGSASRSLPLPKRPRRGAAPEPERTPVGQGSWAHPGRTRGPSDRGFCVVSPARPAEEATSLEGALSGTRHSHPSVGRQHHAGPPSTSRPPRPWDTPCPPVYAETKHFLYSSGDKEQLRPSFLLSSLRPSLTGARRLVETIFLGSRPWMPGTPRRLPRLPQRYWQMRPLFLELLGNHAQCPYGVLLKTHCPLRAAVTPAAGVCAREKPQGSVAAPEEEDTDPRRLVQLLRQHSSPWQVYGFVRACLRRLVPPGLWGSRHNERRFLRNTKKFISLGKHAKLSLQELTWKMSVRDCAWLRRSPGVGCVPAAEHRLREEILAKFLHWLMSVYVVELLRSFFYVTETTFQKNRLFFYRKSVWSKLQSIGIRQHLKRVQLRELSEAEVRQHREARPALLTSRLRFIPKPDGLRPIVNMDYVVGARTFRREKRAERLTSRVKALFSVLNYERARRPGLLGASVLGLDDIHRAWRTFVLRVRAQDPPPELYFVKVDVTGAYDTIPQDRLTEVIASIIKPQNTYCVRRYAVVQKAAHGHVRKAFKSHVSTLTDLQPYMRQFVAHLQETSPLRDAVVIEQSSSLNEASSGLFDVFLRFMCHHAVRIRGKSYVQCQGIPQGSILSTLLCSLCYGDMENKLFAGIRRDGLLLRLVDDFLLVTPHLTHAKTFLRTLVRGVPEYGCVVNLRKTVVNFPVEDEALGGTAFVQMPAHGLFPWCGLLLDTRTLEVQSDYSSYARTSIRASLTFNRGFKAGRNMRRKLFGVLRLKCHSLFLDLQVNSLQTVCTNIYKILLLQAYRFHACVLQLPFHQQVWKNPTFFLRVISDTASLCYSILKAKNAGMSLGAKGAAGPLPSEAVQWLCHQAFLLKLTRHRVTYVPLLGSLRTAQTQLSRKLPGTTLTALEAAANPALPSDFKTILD
Target sequence in this assay (O60832 whole entry partner): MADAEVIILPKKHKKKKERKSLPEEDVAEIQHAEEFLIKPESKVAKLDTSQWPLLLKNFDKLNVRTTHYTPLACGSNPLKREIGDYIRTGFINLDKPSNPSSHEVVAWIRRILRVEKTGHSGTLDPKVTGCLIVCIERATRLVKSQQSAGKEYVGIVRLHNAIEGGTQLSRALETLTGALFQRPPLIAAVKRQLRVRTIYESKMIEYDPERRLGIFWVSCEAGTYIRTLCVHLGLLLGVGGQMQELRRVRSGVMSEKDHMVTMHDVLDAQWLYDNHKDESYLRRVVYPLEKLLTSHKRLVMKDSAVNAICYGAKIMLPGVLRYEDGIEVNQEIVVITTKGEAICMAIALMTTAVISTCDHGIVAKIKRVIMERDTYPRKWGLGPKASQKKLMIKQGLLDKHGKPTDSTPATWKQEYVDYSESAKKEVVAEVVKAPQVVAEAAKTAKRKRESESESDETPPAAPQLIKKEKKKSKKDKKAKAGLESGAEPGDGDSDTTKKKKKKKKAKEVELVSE
Target sequence in this assay (Q9NPE3 whole entry partner): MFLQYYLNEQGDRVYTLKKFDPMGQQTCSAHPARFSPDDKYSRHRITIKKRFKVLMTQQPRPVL
Target sequence in this assay (Q9NX24 whole entry partner): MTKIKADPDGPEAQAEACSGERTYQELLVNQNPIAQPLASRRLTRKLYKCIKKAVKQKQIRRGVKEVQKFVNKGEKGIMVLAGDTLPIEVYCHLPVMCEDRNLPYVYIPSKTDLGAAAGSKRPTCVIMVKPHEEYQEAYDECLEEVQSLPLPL
Target sequence in this assay (Q9NY12 whole entry partner): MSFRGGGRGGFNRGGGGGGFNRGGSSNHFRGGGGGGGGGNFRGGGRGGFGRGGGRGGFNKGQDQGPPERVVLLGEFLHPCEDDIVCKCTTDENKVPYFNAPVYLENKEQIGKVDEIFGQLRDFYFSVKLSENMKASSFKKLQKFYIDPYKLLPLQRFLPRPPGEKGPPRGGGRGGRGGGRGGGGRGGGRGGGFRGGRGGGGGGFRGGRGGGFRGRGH

Data set [6] concerns the target T1, telomerase. Kind of data set: Intracellular TRAP, telomerase activity in intact cells. To be noted: mean ± SD, read-out: IC50, inhibition of telomerase activity. In kind it is cell-based.
Target sequence in this assay (O14746 whole entry): as the sequence (O14746 whole entry) above
Target sequence in this assay (O60832 whole entry partner): as the sequence (O60832 whole entry partner) above
Target sequence in this assay (Q9NPE3 whole entry partner): as the sequence (Q9NPE3 whole entry partner) above
Target sequence in this assay (Q9NX24 whole entry partner): as the sequence (Q9NX24 whole entry partner) above
Target sequence in this assay (Q9NY12 whole entry partner): as the sequence (Q9NY12 whole entry partner) above
Data set [7] concerns the target T1, telomerase. As to the kind of experiment: Telomerase IC50 determination, general method. In kind it is biochemical. Conditions: read-out: IC50 against telomerase. From the text:
One method used to identify compounds of the invention that inhibit telomerase activity involves placing cells, tissues, or preferably a cellular extract or other preparation containing telomerase, in contact with several known concentrations of a test compound in a buffer compatible with telomerase activity. […] Other methods for determining the inhibitory concentration of a compound of the invention against telomerase can be employed as will be apparent to those of skill in the art based on the disclosure herein.
Target sequence in this assay (O14746 whole entry): as the sequence (O14746 whole entry) above

For data set [8] the following is noted: human patients; cited from earlier work.

Compound `CC(C)S[C@@H]1O[C@H](CO)[C@H](O)[C@H](O)[C@H]1O` [+IPTG] registered a Terminal restriction fragment in data set [1] of 2.91 kb. In addition, the “Telomerase activity, % of control” value with human telomerase is on record as 98.9 % of control. Further, the Doubling time in the data set with FaDu cells was determined as 23 h.

For the compound `Cc1ccc(C(=O)Nc2ccc(S(=O)(=O)O)c3cc(S(=O)(=O)O)cc(S(=O)(=O)O)c23)cc1NC(=O)c1cccc(NC(=O)Nc2cccc(C(=O)Nc3cc(C(=O)Nc4ccc(S(=O)(=O)O)c5cc(S(=O)(=O)O)cc(S(=O)(=O)O)c45)ccc3C)c2)c1` [Suramin, suramin], in the data set on FaDu tumor (10 mg/kg iv twice a week), the “bodyweight increase compared with saline” value is reported as “undistinguishable rates of bodyweight increases”. The compound further returned a tumor establishment rate in the data set on FaDu tumor (10 mg/kg iv twice a week from implantation) of 100%. For the same compound, the “fraction of cells with a reduced or eliminated telomere signal” value with FaDu tumor (first two weeks of treatment, 10 mg/kg iv twice a week) was “approximately 10%”; in the data set with FaDu tumor (week 3, 10 mg/kg iv twice a week), “approximately 40%”; in the data set on FaDu tumor (week 4, 10 mg/kg iv twice a week), 75%; in the data set with FaDu tumor (week 5, 10 mg/kg iv twice a week), “over 80%”; with FaDu tumor (week 6, 10 mg/kg iv twice a week) it was 95%. In data set [2] (120 minutes after intravesical 6 mg/ml), the “suramin concentration in the bladder contents” value amounted to 3.6 mg/mL. The plasma concentrations entry in data set [2] (at all times, intravesical 6 mg/ml) is on record as “less than 0.1 μg/ml”. Besides, the concentration at 120 min in [2] (at 0 mm (urethral surface), 120 minutes, read-out: bladder wall tissue concentration) was approximately 80000 ng/g; in data set [2] (at approximately 2 mm depth, read-out: bladder wall tissue concentration), approximately 3000 ng/g; in data set [2] (remainder of the bladder wall, read-out: bladder wall tissue concentration), approximately 3000 ng/g; in [2] (summary of Example 13, read-out: concentrations in the targeted tissues after local administration), 5000 to 100000 ng/g. Moreover, the terminal half-life in data set [3] (6.75 mg/kg) was 13 days. The half-life in data set [3] (beagle, dog, plasma, read-out: terminal half-life (converted)) was 13 days. The clearance in data set [3] (beagle, dog, plasma, read-out: total clearance (converted)) is 2.1 mL/h/kg. Moreover, the concentration at 72 h in “in vivo” was ~10 µM and ~14000 ng/mL. In addition, the tumor outcome in the data set on FaDu tumors was “completely disappeared”. Further, the telomere shortening result in [4] is reported as “about 30%”. Besides, the IC50 on telomerase [5] (MCF7, cell extract) is 2800 ± 1500 nM; on telomerase [5] (PC3, cell extract), 1600 ± 700 nM; at telomerase [6] (FaDu, intact cell), 1700 ± 1000 nM; on telomerase [6] (MCF7, intact cell) it was 1400 ± 1100 nM; on telomerase [6] (PC3, intact cell), 2300 ± 900 nM; at telomerase [7], less than 10000 nM. Also, in data set [8], the “half-life, first phase of triphasic plasma decline” value was 0.229 days. In addition, in data set [8], the “half-life, second phase of triphasic plasma decline” value is on record as 4.1 days. The “half-life, third phase of triphasic plasma decline” value in data set [8] was 78 days. The total body clearance in data set [8] is on record as 0.0095 liter/hour/m^2.
